Measured values published in patent US5281710A, “Dynemicin analogs: synthesis, methods of preparation and use” (The Scripps Research Institute, priority 1992, dated 1994).
pIC50: −log10 of the molar value.

Columns and labels:
φX174 Form I DNA = experiment: φX174 supercoiled DNA cleavage, agarose gel; type: biochemical
SK-Mel-28 melanoma cells = experiment: Sulforhodamine B cytotoxicity, SK-Mel-28; type: cell-based; details: Homo sapiens, SK-MEL-28, SK-Mel-28; read-out: IC50
Method in brief: (§1)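 Compounds and chimeras were screened against a panel of ten to twenty-five cancer cell lines plus seven "normal" cell preparations. Cytotoxicity was measured by sulforhodamine B staining, and IC50 was taken as the compound concentration required to kill one-half of the treated cells.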

M-21 melanoma cells [1] = experiment: Sulforhodamine B cytotoxicity, M-21; type: cell-based; details: Homo sapiens, M21
Method: (§2) In addition to the screening already discussed, several of the before-described compounds and chimeras were screened against several or all of a panel of ten to twenty-five cancerous cell lines as target cells and seven "normal" cell preparations. This screening utilized a sulforhodamine B cytotoxidity assay as discussed below.
(§3) IC50 values; i.e., the concentration of Compound required to kill one-half of the treated cells, were then calculated.
UCLA M-21 Institute, and originally obtained from […]

[2] = system: Ovcar-3 ovarian carcinoma cells; experiment: Sulforhodamine B cytotoxicity, Ovcar-3; type: cell-based; details: Homo sapiens, OVCAR-3, Ovcar-3; read-out: IC50
Method in brief: as §1

U-87 UG astocytoma cells = experiment: Sulforhodamine B cytotoxicity, U-87; type: cell-based
Method: as §2, §3

[3] = system: HT-29 colon carcinoma cells; experiment: Sulforhodamine B cytotoxicity, HT-29; type: cell-based; details: Homo sapiens, HT-29, colon carcinoma H-29 (Table 4) / HT-29 (Table 5); read-out: IC50
Method in brief: as §1

[4] = system: Mel-7 breast carcinoma cells; experiment: Sulforhodamine B cytotoxicity, Mel-7 (breast carcinoma); type: cell-based; details: Breast carcinoma cell
Method: as §2, §3

[5] = system: UCLA P-3 non-small cell lung carcinoma cells; experiment: Sulforhodamine B cytotoxicity, UCLA-P3; type: cell-based, human; details: Homo sapiens, UCLA P-3, non small cell lung P-3; read-out: IC50
Method: as §2, §3
UCLA P-3 Dr. D. Morton, University of California, […]

[6] = system: H-322 lung carcinoma cells; experiment: Sulforhodamine B cytotoxicity, H-322; type: cell-based; details: NCI-H322; H-322; read-out: IC50
Method in brief: as §1

H-358 lung cells = experiment: Sulforhodamine B cytotoxicity, H-358; type: cell-based; details: Homo sapiens, NCI-H358
Method: as §2, §3

H-522 lung cells = experiment: Sulforhodamine B cytotoxicity, H-522; type: cell-based; details: Homo sapiens, NCI-H522
Method: as §2, §3

[7] = system: Capan-1 pancreatic carcinoma cells; experiment: Sulforhodamine B cytotoxicity, Capan-1; type: cell-based; details: Homo sapiens, CAPAN-1, Capan-1; read-out: IC50
Method in brief: as §1

[8] = system: HL-60 promyeocytic leukemia cells; experiment: Sulforhodamine B cytotoxicity, HL-60; type: cell-based; details: Homo sapiens, HL-60, HL-60; read-out: IC50
Method in brief: as §1

RPMI-8226 cells = experiment: Sulforhodamine B cytotoxicity, RPMI-8226; type: cell-based; details: Homo sapiens
Method: as §2, §3

[9] = system: P-388 mouse lymphoma cells; experiment: Sulforhodamine B cytotoxicity, P-388; type: cell-based; details: Mus musculus, P388; P-388; read-out: IC50
Method: as §2, §3

[10] = system: multiple-drug resistant TCAF-DAX cell line; experiment: Cytotoxicity, TCAF-DAX; type: cell-based
Method: as §2, §3

TCAF cell line = experiment: Cytotoxicity, TCAF; type: cell-based
Method: as §2, §3

[11] = system: SK-Mel-28, M-14, M-21, Capan-1, Ovcar-3, Ovcar-4, UCLA-P-3, U-87, U-251 and Molt-4 cell lines; type: cell-based; details: ten tumor cell lines
Method: In other studies, IC50 values were determined for the anti-tumor agents dynemicin A, calicheamicin γ1^I, taxol, vinblastine/vincristine, doxorubicin, actinomycin D and bleomycin sulfate against the SK-Mel-28, M-14, M-21, Capan-1, Ovcar-3, Ovcar-4, UCLA-P-3, U-87, U-251 and Molt-4 cell lines.

[12] = system: tumor cells and "normal" cells; experiment: Relative activity against tumor cells and normal cells; type: cell-based
Description: In contrast, 100 percent of normal human mammary epithelial cells (HMEC) were viable at the same concentration.

M-21 melanoma cells [13] = experiment: Inhibition of [3H]thymidine uptake (DNA synthesis) in M-21 cells; type: cell-based, human; details: 72 hours incubation
Method: (§4) These determinations were made by standard tissue growth procedures using RPMI tissue culture medium supplemented with 10 percent fetal bovine serum plated at 10^4 cells in 100 μl of medium in 96-well tissue culture plates. The cells were permitted to adhere for 24 hours, and the dilutions of Compound 153 were added in 10 μl volumes and incubated for 72 hours at 37° C. in a humidified atmosphere containing five percent CO2. The plates were then washed three times with tissue culture medium and again incubated for 24 hours, as above. Each well received 1 μCi of ^3 H-labeled substrate, and after an additional 16 hours of incubation, cells were collected on glass fiber filters with a Skatron cell harvester. Finally, the filters were placed in Ecolume scintillation cocktail (ICN, Irvine, Calif.), and radioactivity was measured with a Beckeman scintillation counter. Incorporation of the ^3 H label was calculated as a percentage of untreated controls.

M-21 melanoma cells [14] = experiment: Inhibition of [3H]leucine uptake (protein synthesis) in M-21 cells; type: cell-based, human; details: 72 hours incubation
Method: as §4

[15] = system: EMT6 mammary tumor in Balb/c BYJ mice; experiment: In vivo EMT6 mammary tumor in Balb/c BYJ mice; set-up: species or system mouse; details: 10 mg/kg on days 1, 5 and 9
Method: The data of FIG. 10 illustrate a further in vivo study using compound 153. Here, groups of 6-10 week old, female Balb/c BYJ mice (obtained from The Scripps Research Institute breeding colony, La Jolla, Calif.) (8 per group) were inoculated with 5×10^5 cells of the EMT6 tumor cell line, a mammary tumor. The mice were then treated with normal saline (control) or normal saline containing 10 mg/kg of Compound 153 (study) on days 1, 5 and 9 after the inoculation.

Chemical stability = type: physicochemical

For `O=C(OCCS(=O)(=O)c1ccccc1)N1c2ccc(OCCO)cc2C23OC24CCCC3C#C/C=C\C#CC14` (centres unmarked) [Compound 153], the DNA cleavage (φX174 Form I DNA; 1.0 mM, 24 hours, acidic pH) was “no DNA cleavage activity”, the DNA cleavage (φX174 Form I DNA; 1.0 mM, 24 hours, pH 7.0 and higher) was “some DNA cleavage activity” and the DNA cleavage (φX174 Form I DNA; pH 8.5, 24 or 48 hours, 37° C.) was “strong DNA cleavage activity”. For the same compound, the pIC50 (SK-Mel-28 melanoma cells) was 5.51, the pIC50 (M-21 melanoma cells [1]) was 5.80 and the pIC50 [2] was 6.11. The pIC50 (U-87 UG astocytoma cells) was 6.11, the pIC50 [3] was 5.80 and the pIC50 [4] was 6.11. The pIC50 [5] was 7.01, the pIC50 [6] was 6.41 and the pIC50 (H-358 lung cells) was 6.70. For the same compound, the pIC50 (H-522 lung cells) was 7.01, the pIC50 [7] was 8.41 and the pIC50 [8] was 10.44. It also gave a pIC50 (RPMI-8226 cells) of 8.11, a pIC50 [9] of 8.34 and a pIC50 [10] of 8.77. The pIC50 (TCAF cell line) was 8.96, the “relative potency among agents across cell lines” value [11] was “comparable to most of the other agents against the other cell lines” and the “selectivity between normal and cancer cells (qualitative)” value [12] was “relative selectivity for tumor cell lines as opposed to normal, untransformed cells”. The “times more active against tumor cells than against normal cells” value ([12]; except for the three melanoma cell lines) was 10^1 -10^8 times, the “inhibition of [3H]thymidine uptake (DNA synthesis)” value (M-21 melanoma cells [13]) was “severely impair the ability of M-21 melanoma cells to synthesize DNA” and the “inhibition of [3H]leucine uptake (protein synthesis)” value (M-21 melanoma cells [14]) was “severely impair”. The “tumor growth of treated tumors” value [15] was “much slower, and almost linear”, the “tumor volume vs control” value ([15]; day 8) was “slight difference in the average volume of the tumors, with the study group having a lower tumor burden” and the “control group's average tumor volume relative to study group” value ([15]; day 20) was “about seven”. For the same compound, the chemical stability (Chemical stability) was “decompose cleanly to form phenyl vinyl sulfone and the corresponding free amine enediyne Compound 153a” and the time remaining intact (Chemical stability; pH 7.0 phosphate buffer (100 mM), 37° C.) was at least 1.5 h.
